Experimental data as given in patent US6607522B1, “Methods for tissue welding using laser-activated protein solders” (General Hospital Corporation, priority 2000, dated 2003).

Key:
[1] = in vitro; cited from earlier work
[2] = system: 5 mm incision on equatorial sclera of human cadaveric eyes; assay: Leaking pressure of laser-welded scleral incisions in cadaveric eyes
Source text: Welding Procedure: To measure leaking pressures, an 18-gauge butterfly needle was connected by plastic tubing to a water bottle. The inner pressure in the bottle was controlled by a hand-pumped sphygmomanometer. Nonpreserved cadaveric eyes were defrosted in room-temperature water. The butterfly needle was inserted in the vitreous cavity through equatorial sclera, and the eye was pressurized to 25 to 30 mm Hg. The corneal epithelium was then removed at the wound site, and a caliper set on 5 mm used to make the extent of the incision on equatorial sclera, perpendicular to the limbus. All incisions were placed equidistant from the limbus, and areas of blue or thin sclera were avoided. […] The exact power output of the fiber was measured using a power meter (model 210; Coherent, Palo Alto, Calif.). Argon laser goggles (Glendale Protective Technologies, Lakeland, Fla.) were worn, which allowed viewing of the fluorescence from the Ce6 (emission 670 nm). To set the remaining adhesive on the scleral surface, which surrounded the wound, additional laser was applied until loss of fluorescence of the dye, which took another 30 to 45 seconds.
Leaking Pressure: Leaking pressures were then measured using the sphygmomanometer, which was increasingly pressurized in approximately 10-mm Hg increments. Leaking pressure was recorded the moment the wound leaked air or fluid. […]

Compound	triplet yield [1]	Mean Leaking Pressure ([2]; argon blue-green laser 488-514 nm, total energy 24-57 J, 60-120 s, mean ± spread)	Mean Leaking Pressure/Total Energy Ratio ([2]; leaking pressure in mm Hg, total energy in joules)
CC1(C)C(/C=C/C=C/C=C/C=C2\N(CCCCS(=O)(=O)O)c3ccc4ccccc4c3C2(C)C)=[N+](CCCCS(=O)(=O)[O-])c2ccc3ccccc3c21 [indocyanine green]	0.11	–	–
BSA − Ce6 conjugate: Covalent bovine serum albumin-chlorin e6 conjugate solder; protein 5.2 mM, Ce6 6.2 mM, ratio 0.84	–	78.0 ± 11.9 millimeters of mercury	1.75 ± 0.26
